Results taken from US11654136B2, “Phosphoinositide 3-kinase inhibitor with a zinc binding moiety” (Curis, Inc., priority 2011, dated 2023).
“Also recorded” adds a separate entry of the source.

How the values were obtained:
[1] = system: H2122 (human NSCLC cell line) xenograft tumors; assay: H2122 xenograft tumor model; assay type: in vivo, nude mice
Method: (§1) SU-DHL4 (diffuse large B-cell lymphoma cell line), H2122 (human NSCLC cell line), Daudi (non-Hodgkin's lymphoma cell line), and OPM2 (multiple myeloma tumor cell line) cells were implanted into either nude or Scid (severe […] immune-deficient) mice. […]. […] The control groups were treated with vehicle using the same dosing schedule as the corresponding active group.
(§2) In another study, the Daudi tumor group was dosed at 50 mg/Kg twice a day for five days per week. […] The SU-DHL4 tumor group was dosed at 100 mg/Kg orally or 50 mg/Kg intravenously.
(§3) Tumors were measured during the study period with an electronic caliper, and body weights were measured twice a week. The following formula was used to calculate the tumor volume: […] Percentage of tumor volume change was used to describe compound activity over the treatment period.

[2] = system: Salmonella typhimurium TA98; assay: Mini-Salmonella/mammalian-microsome reverse mutation assay TA98
Method: The tester strains used in the mutagenicity assay were Salmonella typhimurium tester strains TA98 (for detecting frame-shift reverse mutation) and TA100 (for detecting point reverse mutation). The assay was conducted in both the presence and absence of S9 mixture along with concurrent vehicle (DMSO, 20 μl/well) and positive controls in duplicate using 6-well plates. […] A reproducible two-fold increase (>2× of vehicle control) of revertant colonies over the daily average control value is considered a positive response of gene mutation for each strain.
2-nitrofluorene and sodium azide served as the positive controls in the absence of S9 for TA98 and TA100 respectively. 2-Aminoanthracene served as the positive controls in the presence of S9 for TA98 and TA100.

[3] = Pharmacokinetic study in rats; assay type: in vivo; details: rat, single oral gavage 20 mg/kg, male Sprague-Dawley rats, plasma
Method: The resulting clear yellow solution was stored at room temperature until picked up for dosing.
Three male Sprague-Dawley rats from Charles River Laboratories were used in this study. High fat diet (VHFD, D12492i) from Research Diets Inc. were provided ad libitum throughout the in-life portion of the study.
Blood samples (approximate volume 150 μL) were collected tail vein at 0.25, 0.5, 1, 3, 6, and 24 hours postdose. Blood samples were placed into tubes containing sodium heparin and centrifuged at 8000 rpm for 6 minutes at 4° C. to separate plasma from the samples. Following centrifugation, the resulting plasma was transferred to clean tubes and stored frozen at −80° C. pending bioanalysis.
The pharmacokinetic parameters were determined from mean concentration-time data in the test subjects. A compartmental modeling of WINNONILIN® Professional 5.2. was used to calculate parameters. Any concentrations that were below the limit of quantitation (lower limit of quantitation=1 ng/mL) were omitted from the calculation of parameters in individual animals.

[4] = system: HDAC activity (Ac-H3, Ac-Tub, Ac-p53, p53, p21) in H460 cells; assay: Western blot / in-cell-western of HDAC markers in H460 cells; assay type: cell-based
Method: (§4) Cell extracts were prepared in the presence of SDS and 2-mercaptoethanol and resolved in polyacrylamide gels. Proteins were transferred to nitrocellulose filter and blotting was done using standard procedures with blocking solutions (Li-Cor Bioscience) containing the indicated primary antibody. Primary antibodies against p-EGFR, EGFR, p-HER2, HER2, p-HER3, HER3, p-MET, MET, p-bRaf, p-cRaf, pMEK, MEK, p-ERK, ERK and tubulin were purchased from Cell Signaling Technology. Secondary antibody conjugated with IRdye 680, 800CW were used and the signal was detected with Li-Cor Odyssey Imager.
(§5) Immunocytochemistry was performed on cells grown in monolayer culture that were treated as indicated in the figure legends and then fixed in 4% (w/v) paraformaldehyde. After washing in 1×PBS, immunostaining was performed in Li-Cor blocking solution containing the indicated primary antibodies and IRDye 680- or 800CW-conjugated secondary antibodies. For in-cell-western, a Li-Cor Odyssey infrared imager was used for detection and quantification of results.
(§6) Cells were treated with DMSO alone (vehicle control) or containing test compounds for 1 h before Western blot or in-cell-western was performed.

[5] = system: SU-DHL4 (diffuse large B-cell lymphoma cell line) xenograft tumors; assay: SU-DHL4 xenograft tumor model; assay type: in vivo, nude mice
Method: as §1, §2, §3

[6] = system: PI3K pathway signaling (AKT, 4EBP-1, p70S6) in H460 cells; assay: Western blot / in-cell-western of PI3K pathway signaling in H460 cells; assay type: cell-based
Method: as §4, §5, §6

[7] = Daudi xenograft tumor model; assay type: in vivo; details: Scid, mouse, in vivo; oral; Daudi model; read-out: maximum tolerated dose (MTD)
Method: as §1, §2, §3

[8] = system: Daudi (non-Hodgkin's lymphoma cell line) xenograft tumors; assay: Daudi xenograft tumor model; assay type: in vivo
Method: as §1, §2, §3

[9] = system: OPM2 (multiple myeloma tumor cell line) xenograft tumors; assay: OPM2 xenograft tumor model; assay type: in vivo, nude mice; details: oral 50 mg/kg twice a day, five days per week
Method: as §1, §2, §3

COc1ccc(-c2nc(N3CCOCC3)c3sc(CN(C)c4ncc(C(=O)NO)cn4)cc3n2)cn1 [Compound 1, N-hydroxy-2-(((2-(6-methoxypyridin-3-yl)-4-morpholinothieno[3,2-d]pyrimidin-6-yl)methyl)(methyl)amino)pyrimidine-5-carboxamide]
Body weight ([1]; oral 75 mg/Kg twice a day, H2122 tumor-bearing nude mice): body weight loss
Tumor growth ([1]; oral 75 mg/kg twice a day, then 50 mg/Kg twice a day from Day-11, five days per week): efficacious
Background Lawn TA98 ([2]; +S9, 62.5 μg/well): 4/4
Revertants per well TA98, Mean ([2]; +S9, 62.5 μg/well): 5
Revertants per well TA98, well 1 ([2]; +S9, 62.5 μg/well): 4
Revertants per well TA98, well 2 ([2]; +S9, 62.5 μg/well): 6
Background Lawn TA98 ([2]; +S9, 125 μg/well): 4/4
Revertants per well TA98, Mean ([2]; +S9, 125 μg/well): 5
Revertants per well TA98, well 1 ([2]; +S9, 125 μg/well): 6
Revertants per well TA98, well 2 ([2]; +S9, 125 μg/well): 3
Background Lawn TA98 ([2]; +S9, 250 μg/well): 4/4
Revertants per well TA98, Mean ([2]; +S9, 250 μg/well): 7
Revertants per well TA98, well 1 ([2]; +S9, 250 μg/well): 8
Revertants per well TA98, well 2 ([2]; +S9, 250 μg/well): 6
Background Lawn TA98 ([2]; +S9, 500 μg/well): 3,sp/3,sp
Revertants per well TA98, Mean ([2]; +S9, 500 μg/well): 6
Revertants per well TA98, well 1 ([2]; +S9, 500 μg/well): 6
Revertants per well TA98, well 2 ([2]; +S9, 500 μg/well): 6
Background Lawn TA98 ([2]; +S9, 1000 μg/well): 3,mp/3,mp
Revertants per well TA98, Mean ([2]; +S9, 1000 μg/well): 7
Revertants per well TA98, well 1 ([2]; +S9, 1000 μg/well): 6
Revertants per well TA98, well 2 ([2]; +S9, 1000 μg/well): 7
Mutagenic response TA98 ([2]; presence and absence of S9, up to 1000 μg/well): no evidence of a significant increase in the mean number of revertant colonies; also recorded: did not induce a positive mutagenic response
Background Lawn TA98 ([2]; −S9, 62.5 μg/well): 4/4
Revertants per well TA98, Mean ([2]; −S9, 62.5 μg/well): 4
Revertants per well TA98, well 1 ([2]; −S9, 62.5 μg/well): 4
Revertants per well TA98, well 2 ([2]; −S9, 62.5 μg/well): 4
Background Lawn TA98 ([2]; −S9, 125 μg/well): 4/4
Revertants per well TA98, Mean ([2]; −S9, 125 μg/well): 5
Revertants per well TA98, well 1 ([2]; −S9, 125 μg/well): 4
Revertants per well TA98, well 2 ([2]; −S9, 125 μg/well): 6
Background Lawn TA98 ([2]; −S9, 250 μg/well): 4,sp/4,sp
Revertants per well TA98, Mean ([2]; −S9, 250 μg/well): 6
Revertants per well TA98, well 1 ([2]; −S9, 250 μg/well): 6
Revertants per well TA98, well 2 ([2]; −S9, 250 μg/well): 5
Background Lawn TA98 ([2]; −S9, 500 μg/well): 3,sp/3,sp
Revertants per well TA98, Mean ([2]; −S9, 500 μg/well): 4
Revertants per well TA98, well 1 ([2]; −S9, 500 μg/well): 5
Revertants per well TA98, well 2 ([2]; −S9, 500 μg/well): 3
Background Lawn TA98 ([2]; −S9, 1000 μg/well): 3,mp/3,mp
Revertants per well TA98, Mean ([2]; −S9, 1000 μg/well): 5
Revertants per well TA98, well 1 ([2]; −S9, 1000 μg/well): 4
Revertants per well TA98, well 2 ([2]; −S9, 1000 μg/well): 5
AUC(0-inf) [3]: 164 ng·h/mL
Cmax [3]: 39.5 ng/mL
Tmax [3]: 6 min
Half-life ([3]; read-out: half-life (T1/2) (converted)): 702 min
Levels of acetylated-tubulin, histone 3, p53 and p21 versus dose [4]: increases levels of acetylated-tubulin (FIG. 7B), acetylated histone 3 (FIG. 7C), acetylated p53 (FIG. 7D), and acetylated p21 (FIG. 7E) in a dose-dependent manner
Total p53 and p21 content [4]: upregulates total p53 and p21 content
Levels of acetylated histone 3, tubulin and p53 ([4]; 1 μmon, 1 h): increases the levels of acetylated histone 3 (Ac-H3), tubulin (Ac-Tub), and p53 (Ac-p53)
Tumor growth ([5]; intravenous (IV) 50 mg/kg): strongly inhibited tumor growth
Tumor growth ([5]; orally (PO) 100 mg/kg): strongly inhibited tumor growth
Phosphorylation of Akt [6]: persistently and potently inhibits phosphorylation of Akt in a dose-dependent manner
Activation of AKT, 4EBP-1 and p70S6 ([6]; 1 μmon): inhibits the activation of AKT and the downstream signaling proteins 4EBP-1 and p70S6
MTD [7]: 100 mg/kg
Tumor growth ([8]; oral 50 mg/Kg twice a day, five days per week): efficacious
Antitumor activity compared with GDC-0941, vorinostat and their combination ([8]; oral 100 mg/Kg, each treatment at its MTD): more efficacious than vorinostat, GDC-0941, or a combination of both
Tumor growth versus dose ([8]; oral 25, 50 or 100 mg/Kg five day per week): inhibited Daudi tumor growth in a dose-dependent manner
Tumor growth [9]: efficacious
